In publication PMC5218480 (PLoS ONE, 2017):

Test system: MV-4-11 cells
Test: Gene expression microarray analysis (Affymetrix PrimeView) and GSEA
Type: cell-based, human
Parameters: RFU PODN (11730768_x_at) / Fold change /veh PODN (11730768_x_at) / RFU LINC00158 (11744669_a_at) / Fold change /veh LINC00158 (11744669_a_at) / RFU DUSP10 (11751237_a_at) / Fold change /veh DUSP10 (11751237_a_at) / RFU ID3 (11757404_x_at) / Fold change /veh ID3 (11757404_x_at) / RFU PLEKHG5 (11737974_s_at) / Fold change /veh PLEKHG5 (11737974_s_at) / RFU LRRC4B (11730491_at) / Fold change /veh LRRC4B (11730491_at) / RFU GIMAP4 (11747438_a_at) / Fold change /veh GIMAP4 (11747438_a_at) / RFU KRT8 (11758183_x_at) / Fold change /veh KRT8 (11758183_x_at) / RFU CNN1 (11734310_a_at) / Fold change /veh CNN1 (11734310_a_at) / RFU VPS37D (11726825_at) / Fold change /veh VPS37D (11726825_at) / RFU C10orf10 (11716522_x_at) / Fold change /veh C10orf10 (11716522_x_at) / RFU KIR2DL2 /// KIR2DL4 /// KIR2DL5A /// KIR2DL5B /// KIR2DS1 /// KIR2DS2 /// KIR2DS3 /// KIR2DS4 /// KIR3DL3 /// KIR3DL3 /// KIR3DS1 (11738374_at) / Fold change /veh KIR2DL2 /// KIR2DL4 /// KIR2DL5A /// KIR2DL5B /// KIR2DS1 /// KIR2DS2 /// KIR2DS3 /// KIR2DS4 /// KIR3DL3 /// KIR3DL3 /// KIR3DS1 (11738374_at) / RFU C1QL1 (11718748_at) / Fold change /veh C1QL1 (11718748_at) / RFU TMPRSS4 (11747572_a_at) / Fold change /veh TMPRSS4 (11747572_a_at) / RFU HAMP (11756126_x_at) / Fold change /veh HAMP (11756126_x_at) / RFU RNFT2 (11725882_a_at) / Fold change /veh RNFT2 (11725882_a_at) / RFU NR4A2 (11747474_a_at) / Fold change /veh NR4A2 (11747474_a_at) / RFU ABCC12 (11746883_a_at) / Fold change /veh ABCC12 (11746883_a_at) / RFU TMEM136 (11760407_x_at) / Fold change /veh TMEM136 (11760407_x_at) / RFU CLDN22 /// WWC2 (11732394_at) / Fold change /veh CLDN22 /// WWC2 (11732394_at) / RFU HLA-DPB1 (11760878_x_at) / Fold change /veh HLA-DPB1 (11760878_x_at) / RFU SPINT1 (11716480_a_at) / Fold change /veh SPINT1 (11716480_a_at) / RFU GAP43 (11754022_s_at) / Fold change /veh GAP43 (11754022_s_at) / RFU A4GNT (11735810_at) / Fold change /veh A4GNT (11735810_at) / RFU PRB3 (11715151_x_at) / Fold change /veh PRB3 (11715151_x_at) / RFU TUBB4B (11761932_at) / Fold change /veh TUBB4B (11761932_at) / RFU CAPN14 (11732068_a_at) / Fold change /veh CAPN14 (11732068_a_at) / RFU TMCC2 (11721928_a_at) / Fold change /veh TMCC2 (11721928_a_at) / RFU IRGQ (11745062_a_at) / Fold change /veh IRGQ (11745062_a_at) / RFU FAM174B (11720279_a_at) / Fold change /veh FAM174B (11720279_a_at) / RFU TMPRSS4 (11748680_a_at) / Fold change /veh TMPRSS4 (11748680_a_at) / RFU FAM212B (11763350_a_at) / Fold change /veh FAM212B (11763350_a_at) / RFU PLEKHG5 (11743358_a_at) / Fold change /veh PLEKHG5 (11743358_a_at) / RFU ZSCAN30 (11745921_a_at) / Fold change /veh ZSCAN30 (11745921_a_at) / RFU CMKLR1 (11741424_a_at) / Fold change /veh CMKLR1 (11741424_a_at) / RFU LOC101060620 /// MAPK8IP1 (11723275_at) / Fold change /veh LOC101060620 /// MAPK8IP1 (11723275_at) / RFU SPTSSB (11747773_x_at) / Fold change /veh SPTSSB (11747773_x_at) / RFU PRSS12 (11739890_at) / Fold change /veh PRSS12 (11739890_at) / RFU BIN1 (11741810_x_at) / Fold change /veh BIN1 (11741810_x_at) / RFU WNT11 (11732464_a_at) / Fold change /veh WNT11 (11732464_a_at) / RFU C10orf10 (11716521_a_at) / Fold change /veh C10orf10 (11716521_a_at) / RFU C5orf56 (11738089_at) / Fold change /veh C5orf56 (11738089_at) / RFU CYB561 (11721691_x_at) / Fold change /veh CYB561 (11721691_x_at) / RFU ANKRD19P (11752326_a_at) / Fold change /veh ANKRD19P (11752326_a_at) / RFU OR2T12 /// OR2T33 /// OR2T8 (11738714_s_at) / Fold change /veh OR2T12 /// OR2T33 /// OR2T8 (11738714_s_at) / RFU VCAN (11748164_a_at) / Fold change /veh VCAN (11748164_a_at) / RFU JSRP1 (11732532_at) / Fold change /veh JSRP1 (11732532_at) / RFU KRTAP10-11 (11738290_x_at) / Fold change /veh KRTAP10-11 (11738290_x_at) / RFU MYO3A (11730013_a_at) / Fold change /veh MYO3A (11730013_a_at) / RFU EBF3 (11725865_a_at) / Fold change /veh EBF3 (11725865_a_at) / RFU CAMK2N1 (11719241_x_at) / Fold change /veh CAMK2N1 (11719241_x_at) / RFU C5orf56 (11738088_a_at) / Fold change /veh C5orf56 (11738088_a_at) / RFU OLFML3 (11715873_a_at) / Fold change /veh OLFML3 (11715873_a_at) / RFU LOC100653217 /// NTM (11731650_a_at) / Fold change /veh LOC100653217 /// NTM (11731650_a_at) / RFU MAPK11 (11762145_a_at) / Fold change /veh MAPK11 (11762145_a_at) / RFU FIZ1 (11724087_x_at) / Fold change /veh FIZ1 (11724087_x_at) / RFU OASL (11726364_x_at) / Fold change /veh OASL (11726364_x_at) / RFU SOX15 (11748057_x_at) / Fold change /veh SOX15 (11748057_x_at) / RFU CD79A (11719716_a_at) / Fold change /veh CD79A (11719716_a_at) / RFU HIST1H1D (11736915_at) / Fold change /veh HIST1H1D (11736915_at) / RFU CASKIN2 (11723855_a_at) / Fold change /veh CASKIN2 (11723855_a_at) / RFU LOC730098 (11760151_x_at) / Fold change /veh LOC730098 (11760151_x_at) / RFU OR4N2 (11742367_at) / Fold change /veh OR4N2 (11742367_at) / RFU PRRT2 (11749266_a_at) / Fold change /veh PRRT2 (11749266_a_at) / RFU SNX32 (11753110_a_at) / Fold change /veh SNX32 (11753110_a_at) / RFU CDHR5 (11726645_a_at) / Fold change /veh CDHR5 (11726645_a_at) / RFU RCAN1 (11760418_a_at) / Fold change /veh RCAN1 (11760418_a_at) / RFU FAM167A (11723789_a_at) / Fold change /veh FAM167A (11723789_a_at) / RFU FAM26E (11764081_at) / Fold change /veh FAM26E (11764081_at) / RFU ISYNA1 (11749810_s_at) / Fold change /veh ISYNA1 (11749810_s_at) / RFU ACY1 (11761880_at) / Fold change /veh ACY1 (11761880_at) / RFU 11764098_at / Fold change /veh 11764098_at / RFU SAMD14 (11745864_x_at) / Fold change /veh SAMD14 (11745864_x_at) / RFU NPB (11741838_a_at) / Fold change /veh NPB (11741838_a_at) / RFU TMPRSS6 (11731388_a_at) / Fold change /veh TMPRSS6 (11731388_a_at) / RFU KRTAP10-2 (11738614_at) / Fold change /veh KRTAP10-2 (11738614_at) / RFU ARHGAP8 /// PRR5-ARHGAP8 (11727945_x_at) / Fold change /veh ARHGAP8 /// PRR5-ARHGAP8 (11727945_x_at) / RFU KRTAP5-7 /// NADSYN1 (11734609_at) / Fold change /veh KRTAP5-7 /// NADSYN1 (11734609_at) / RFU RASL12 (11751679_a_at) / Fold change /veh RASL12 (11751679_a_at) / RFU CDKN2B (11736163_a_at) / Fold change /veh CDKN2B (11736163_a_at) / RFU PRF1 (11729649_at) / Fold change /veh PRF1 (11729649_at) / RFU, ZNF638 /// ZNF638-IT1 / Fold change vs veh, ZNF638 /// ZNF638-IT1 / RFU, PANK3 / Fold change vs veh, PANK3 / RFU, SH3YL1 / Fold change vs veh, SH3YL1 / RFU, ZEB2 / Fold change vs veh, ZEB2 / RFU, NRIP1 / Fold change vs veh, NRIP1 / RFU, PTTG1IP / Fold change vs veh, PTTG1IP / RFU, CAPN2 / Fold change vs veh, CAPN2 / RFU, MED14 / Fold change vs veh, MED14 / RFU, SNORA58 / Fold change vs veh, SNORA58 / RFU, C1orf63 / Fold change vs veh, C1orf63 / RFU, LRRFIP1 / Fold change vs veh, LRRFIP1 / RFU, NDUFAF7 / Fold change vs veh, NDUFAF7 / RFU, SLC12A2 / Fold change vs veh, SLC12A2 / RFU, IBTK / Fold change vs veh, IBTK / RFU, ESF1 / Fold change vs veh, ESF1 / Fold change vs veh, TMEM50B / RFU, TAOK1 / Fold change vs veh, TAOK1 / RFU, ACBD3 / Fold change vs veh, ACBD3 / RFU, TMA16 / Fold change vs veh, TMA16 / RFU, RWDD3 / Fold change vs veh, RWDD3 / RFU, BCAT1 / Fold change vs veh, BCAT1 / RFU, EDEM3 / Fold change vs veh, EDEM3 / RFU, TMEM33 / Fold change vs veh, TMEM33 / RFU, WDR75 / Fold change vs veh, WDR75 / RFU, AHCTF1 / Fold change vs veh, AHCTF1 / RFU, TFRC / Fold change vs veh, TFRC / RFU, ZDHHC17 / Fold change vs veh, ZDHHC17 / RFU, NOM1 / Fold change vs veh, NOM1 / RFU, ARL8B / Fold change vs veh, ARL8B / RFU, ZBTB11 / Fold change vs veh, ZBTB11 / RFU, TAMM41 / Fold change vs veh, TAMM41 / RFU, KIAA1704 /// LOC100996395 / Fold change vs veh, KIAA1704 /// LOC100996395 / RFU, ING1 / Fold change vs veh, ING1 / RFU, TRMT61B / Fold change vs veh, TRMT61B / RFU, FUBP3 / Fold change vs veh, FUBP3 / RFU, TP53 / Fold change vs veh, TP53 / RFU, TNKS2 / Fold change vs veh, TNKS2 / RFU, ZFP14 / Fold change vs veh, ZFP14 / RFU, ACTR2 / Fold change vs veh, ACTR2 / RFU, PPP3R1 / Fold change vs veh, PPP3R1 / RFU, PIK3R1 / Fold change vs veh, PIK3R1 / RFU, HNRNPA1 / Fold change vs veh, HNRNPA1 / RFU, RNF170 / Fold change vs veh, RNF170 / RFU, ZNF28 / Fold change vs veh, ZNF28 / RFU, RNGTT / Fold change vs veh, RNGTT / RFU, OGT / Fold change vs veh, OGT / RFU, BRD1 / Fold change vs veh, BRD1 / RFU, MARS / Fold change vs veh, MARS / RFU, ZNF655 / Fold change vs veh, ZNF655 / RFU, FAHD1 / Fold change vs veh, FAHD1 / RFU, BDP1 / Fold change vs veh, BDP1 / RFU, LRRCC1 / Fold change vs veh, LRRCC1 / RFU, ARID1A / Fold change vs veh, ARID1A / RFU, ZNF146 / Fold change vs veh, ZNF146 / RFU, ZNF330 / Fold change vs veh, ZNF330 / RFU, GPN3 / Fold change vs veh, GPN3 / RFU, C9orf123 / Fold change vs veh, C9orf123 / RFU, N4BP2L2 / Fold change vs veh, N4BP2L2 / RFU, ARFIP1 / Fold change vs veh, ARFIP1 / RFU, FAM179B / Fold change vs veh, FAM179B / RFU, BCL10 / Fold change vs veh, BCL10 / RFU, UHRF1BP1L / Fold change vs veh, UHRF1BP1L / RFU, BET1 / Fold change vs veh, BET1 / RFU, CNOT2 / Fold change vs veh, CNOT2 / RFU, ZNF268 / Fold change vs veh, ZNF268 / Fold change vs veh, ZNF507 / RFU, DGCR2 / Fold change vs veh, DGCR2 / RFU, WDSUB1 / Fold change vs veh, WDSUB1 / Fold change vs veh, HSP90B1 /// MIR3652 / RFU, ADSS / Fold change vs veh, ADSS / RFU, GK / Fold change vs veh, GK / RFU, ZNF148 / Fold change vs veh, ZNF148 / RFU, TAF9 / Fold change vs veh, TAF9 / RFU, SLC1A5 / Fold change vs veh, SLC1A5 / RFU, SLMO2 / Fold change vs veh, SLMO2 / RFU, ABCC4 / Fold change vs veh, ABCC4 / RFU, LOC101060439 /// RAP1B / Fold change vs veh, LOC101060439 /// RAP1B / RFU, RFX7 / Fold change vs veh, RFX7 / RFU, GTPBP10 / Fold change vs veh, GTPBP10 / RFU, CNEP1R1 / Fold change vs veh, CNEP1R1 / RFU, BIVM-ERCC5 /// ERCC5 / Fold change vs veh, BIVM-ERCC5 /// ERCC5 / RFU, ILF3 / Fold change vs veh, ILF3 / RFU 11762660_at / Fold change /veh 11762660_at / RFU VCAN (11757783_s_at) / Fold change /veh VCAN (11757783_s_at) / RFU DDX43 (11728927_at) / Fold change /veh DDX43 (11728927_at) / RFU KRT8 (11758188_x_at) / Fold change /veh KRT8 (11758188_x_at) / RFU NKD1 (11759106_at) / Fold change /veh NKD1 (11759106_at) / RFU SRD5A1 (11742802_a_at) / Fold change /veh SRD5A1 (11742802_a_at) / RFU TPSAB1 /// TPSB2 (11721975_s_at) / Fold change /veh TPSAB1 /// TPSB2 (11721975_s_at) / RFU GSTM3 (11746129_a_at) / Fold change /veh GSTM3 (11746129_a_at) / RFU IL23R (11737362_x_at) / Fold change /veh IL23R (11737362_x_at) / RFU TMEM51 (11727254_a_at) / Fold change /veh TMEM51 (11727254_a_at) / RFU PIWIL2 (11732686_x_at) / Fold change /veh PIWIL2 (11732686_x_at) / RFU ORM1 (11744905_x_at) / Fold change /veh ORM1 (11744905_x_at) / RFU CCDC152 (11743942_at) / Fold change /veh CCDC152 (11743942_at) / RFU ECM1 (11717891_a_at) / Fold change /veh ECM1 (11717891_a_at) / RFU IL23R (11748794_a_at) / Fold change /veh IL23R (11748794_a_at) / RFU TNFAIP8L3 (11732012_x_at) / Fold change /veh TNFAIP8L3 (11732012_x_at) / RFU MBOAT4 (11741988_at) / Fold change /veh MBOAT4 (11741988_at) / RFU 11764193_at / Fold change /veh 11764193_at / RFU TMEM53 (11763286_at) / Fold change /veh TMEM53 (11763286_at) / RFU MAGEB2 (11727129_at) / Fold change /veh MAGEB2 (11727129_at) / RFU TMEM200A (11744735_a_at) / Fold change /veh TMEM200A (11744735_a_at) / RFU CCDC152 (11751479_a_at) / Fold change /veh CCDC152 (11751479_a_at) / RFU FAM211A (11726209_a_at) / Fold change /veh FAM211A (11726209_a_at) / RFU RGS16 (11746705_a_at) / Fold change /veh RGS16 (11746705_a_at) / RFU VCAN (11755009_s_at) / Fold change /veh VCAN (11755009_s_at) / RFU RHOB (11743442_s_at) / Fold change /veh RHOB (11743442_s_at) / RFU RGS16 (11720943_a_at) / Fold change /veh RGS16 (11720943_a_at) / RFU RGS16 (11720944_at) / Fold change /veh RGS16 (11720944_at) / RFU, VPS4B / Fold change vs veh, VPS4B / RFU, CREB1 / Fold change vs veh, CREB1 / RFU, DNAJC13 / Fold change vs veh, DNAJC13 / RFU, GNAQ / Fold change vs veh, GNAQ / RFU, CDK5R1 / Fold change vs veh, CDK5R1 / RFU, ZRANB3 / Fold change vs veh, ZRANB3 / RFU, CUL4A / Fold change vs veh, CUL4A / RFU, CCNY / Fold change vs veh, CCNY / RFU, UFL1 / Fold change vs veh, UFL1 / RFU, COG3 / Fold change vs veh, COG3 / RFU, DIAPH2 / Fold change vs veh, DIAPH2 / RFU, SKA2 / Fold change vs veh, SKA2 / RFU, AFF3 / Fold change vs veh, AFF3 / RFU, LMF1 / Fold change vs veh, LMF1 / RFU, IPO11 / Fold change vs veh, IPO11 / RFU, DFFB / Fold change vs veh, DFFB / RFU, FOXP1 / Fold change vs veh, FOXP1 / RFU, CARD8 / Fold change vs veh, CARD8 / RFU, STRN3 / Fold change vs veh, STRN3 / RFU, ADK / Fold change vs veh, ADK / RFU, RASSF2 / Fold change vs veh, RASSF2 / RFU, WIPF1 / Fold change vs veh, WIPF1 / RFU, LARP1B / Fold change vs veh, LARP1B / RFU, RASA1 / Fold change vs veh, RASA1 / RFU, RB1 / Fold change vs veh, RB1 / RFU, PPFIA1 / Fold change vs veh, PPFIA1 / RFU, MAT2A / Fold change vs veh, MAT2A / RFU, CCT5 / Fold change vs veh, CCT5 / RFU, WDR92 / Fold change vs veh, WDR92 / RFU, CUX1 / Fold change vs veh, CUX1 / RFU, TTC7A / Fold change vs veh, TTC7A / RFU, TMEM135 / Fold change vs veh, TMEM135 / RFU, DEPTOR / Fold change vs veh, DEPTOR / RFU, CPM / Fold change vs veh, CPM / RFU, DNAJB6 / Fold change vs veh, DNAJB6 / RFU, CACNA2D3 / Fold change vs veh, CACNA2D3 / RFU, DTX4 / Fold change vs veh, DTX4 / RFU, TFCP2 / Fold change vs veh, TFCP2 / RFU, GMCL1 /// GMCL1P1 / Fold change vs veh, GMCL1 /// GMCL1P1 / RFU, AEBP2 / Fold change vs veh, AEBP2 / RFU, SNHG1 /// SNORD22 /// SNORD25 /// SNORD26 /// SNORD27 /// SNORD28 /// SNORD29 /// SNORD31 / Fold change vs veh, SNHG1 /// SNORD22 /// SNORD25 /// SNORD26 /// SNORD27 /// SNORD28 /// SNORD29 /// SNORD31 / Fold change (Aza/veh), C12orf56 (ProbeSet 11735607_a_at) / Fold change (ACY-1035/veh), C12orf56 (ProbeSet 11735607_a_at) / Fold change (Aza/veh), FGFR1OP (ProbeSet 11751329_s_at) / Fold change (ACY-1035/veh), FGFR1OP (ProbeSet 11751329_s_at) / Fold change (Aza/veh), VPS36 (ProbeSet 11739960_a_at) / Fold change (ACY-1035/veh), VPS36 (ProbeSet 11739960_a_at) / RFU SYPL1 (11715823_x_at) / Fold change /veh SYPL1 (11715823_x_at) / RFU IGFBP7 (11715501_s_at) / Fold change /veh IGFBP7 (11715501_s_at) / RFU REEP3 (11722064_at) / Fold change /veh REEP3 (11722064_at) / RFU IGLL1 (11728026_x_at) / Fold change /veh IGLL1 (11728026_x_at): dose or concentration left out as unconfirmed
Conditions: ProbeSet 11741123_x_at; LIST D

Nc1ccc(-c2cccs2)cc1NC(=O)c1ccc2c(c1)cc(C1CC1)n2CCN1CCOCC1 [ACY-1035]
Fold change vs veh, ADK: 0.96
